Measurements: ChEMBL document CHEMBL1156366, “Sequoiatones C-f, constituents of the redwood endophyte Aspergillus parasiticus” (J Nat Prod, 2001)

Test: Toxicity against brine shrimp
Type: organism-based
Conditions: artemia, in vivo; read-out: LD50 (the source's name)

Compound | LC50
CCCCCC[C@H](C)C(=O)/C=C1\C(C(=O)OC)=C2C=COC(C)=C2[C@]1(C)O [SEQUOIATONE C] | 260 µM
COC(=O)C1=C2C=C(C)OC=C2[C@](C)(O)/C1=C/C(=O)[C@@H](C)CCCCCCO [SEQUOIATONE D] | 1300 µM
COC(=O)C1=C2C=COC(C)=C2[C@](C)(O)/C1=C/C(=O)[C@@H](C)CCCCCCO [SEQUOIATONE E] | 640 µM
CCCCCC[C@H](C)C(=O)/C=C1\C(C(=O)OC)=C2C=C(C)OC=C2[C@]1(C)O [SEQUOIATONE F] | 260 µM
